Measured values from patent publication US10011571B2, “Preparation method for aromatic heterocyclic compound used as selective JAK3 and/or JAK1 kinase inhibitor and application of aromatic heterocyclic compound” (SHENZHEN CHIPSCREEN BIOSCIENCES, LTD., priority 2014, dated 2018).
pIC50: −log10 of the molar value.

Legend:
Format in all cases: biochemical
JAK1 = JAK1 (Homo sapiens (Human), UniProt P23458); test: Z'-LYTE enzymatic activity detection, JAK1; conditions: test compound 300 nM; for inhibition at 0.3 µM: read-out: JAK1 % inhibitory rate @300 nM
JAK1, sequence (P23458 whole entry): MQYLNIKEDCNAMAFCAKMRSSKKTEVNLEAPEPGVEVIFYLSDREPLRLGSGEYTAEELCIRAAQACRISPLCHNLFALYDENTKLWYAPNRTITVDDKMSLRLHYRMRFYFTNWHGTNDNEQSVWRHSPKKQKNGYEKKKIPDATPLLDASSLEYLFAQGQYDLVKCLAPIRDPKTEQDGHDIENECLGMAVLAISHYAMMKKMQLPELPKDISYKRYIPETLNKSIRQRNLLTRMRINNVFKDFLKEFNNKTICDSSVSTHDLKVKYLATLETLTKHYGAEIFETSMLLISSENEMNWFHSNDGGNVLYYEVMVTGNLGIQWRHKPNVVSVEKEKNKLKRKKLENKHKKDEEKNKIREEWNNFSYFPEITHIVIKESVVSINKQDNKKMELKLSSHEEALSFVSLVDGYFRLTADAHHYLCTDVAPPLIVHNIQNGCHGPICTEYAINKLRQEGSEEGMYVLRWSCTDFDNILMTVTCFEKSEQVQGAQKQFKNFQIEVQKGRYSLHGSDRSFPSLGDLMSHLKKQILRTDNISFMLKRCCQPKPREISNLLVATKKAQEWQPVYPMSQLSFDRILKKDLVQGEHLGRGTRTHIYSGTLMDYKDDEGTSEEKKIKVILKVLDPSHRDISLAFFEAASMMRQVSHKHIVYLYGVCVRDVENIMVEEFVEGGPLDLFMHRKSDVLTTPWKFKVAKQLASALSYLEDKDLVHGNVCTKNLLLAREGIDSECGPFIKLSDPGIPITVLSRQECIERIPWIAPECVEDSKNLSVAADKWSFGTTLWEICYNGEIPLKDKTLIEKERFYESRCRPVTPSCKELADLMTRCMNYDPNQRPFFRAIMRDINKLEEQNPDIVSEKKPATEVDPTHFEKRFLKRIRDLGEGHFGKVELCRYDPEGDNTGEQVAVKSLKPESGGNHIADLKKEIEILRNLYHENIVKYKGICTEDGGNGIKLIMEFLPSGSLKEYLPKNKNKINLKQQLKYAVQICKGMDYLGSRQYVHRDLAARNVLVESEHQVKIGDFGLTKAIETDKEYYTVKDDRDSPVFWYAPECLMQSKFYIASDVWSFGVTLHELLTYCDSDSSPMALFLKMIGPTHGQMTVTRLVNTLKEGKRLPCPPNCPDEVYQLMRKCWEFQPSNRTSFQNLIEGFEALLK
Procedure, shortened: (§1)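 GST-tagged human recombinant kinases with Z′-LYTE peptides (Tyr6 for JAK1, Tyr4 for JAK2 and JAK3), ATP from kit, reacted 1 h at room temperature; development 1 h, ratio 445/520 nm at 400 nm excitation gives phosphorylation. Inhibition vs solvent control at 30 nM (JAK2, JAK3) or 300 nM (JAK1); tofacitinib as positive control.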

JAK2 = JAK2 (Homo sapiens (Human), UniProt O60674); test: Z'-LYTE enzymatic activity detection, JAK2; conditions: test compound 30 nM; for inhibition at 0.03 µM: read-out: JAK2 % inhibitory rate @30 nM
JAK2, sequence (O60674 whole entry): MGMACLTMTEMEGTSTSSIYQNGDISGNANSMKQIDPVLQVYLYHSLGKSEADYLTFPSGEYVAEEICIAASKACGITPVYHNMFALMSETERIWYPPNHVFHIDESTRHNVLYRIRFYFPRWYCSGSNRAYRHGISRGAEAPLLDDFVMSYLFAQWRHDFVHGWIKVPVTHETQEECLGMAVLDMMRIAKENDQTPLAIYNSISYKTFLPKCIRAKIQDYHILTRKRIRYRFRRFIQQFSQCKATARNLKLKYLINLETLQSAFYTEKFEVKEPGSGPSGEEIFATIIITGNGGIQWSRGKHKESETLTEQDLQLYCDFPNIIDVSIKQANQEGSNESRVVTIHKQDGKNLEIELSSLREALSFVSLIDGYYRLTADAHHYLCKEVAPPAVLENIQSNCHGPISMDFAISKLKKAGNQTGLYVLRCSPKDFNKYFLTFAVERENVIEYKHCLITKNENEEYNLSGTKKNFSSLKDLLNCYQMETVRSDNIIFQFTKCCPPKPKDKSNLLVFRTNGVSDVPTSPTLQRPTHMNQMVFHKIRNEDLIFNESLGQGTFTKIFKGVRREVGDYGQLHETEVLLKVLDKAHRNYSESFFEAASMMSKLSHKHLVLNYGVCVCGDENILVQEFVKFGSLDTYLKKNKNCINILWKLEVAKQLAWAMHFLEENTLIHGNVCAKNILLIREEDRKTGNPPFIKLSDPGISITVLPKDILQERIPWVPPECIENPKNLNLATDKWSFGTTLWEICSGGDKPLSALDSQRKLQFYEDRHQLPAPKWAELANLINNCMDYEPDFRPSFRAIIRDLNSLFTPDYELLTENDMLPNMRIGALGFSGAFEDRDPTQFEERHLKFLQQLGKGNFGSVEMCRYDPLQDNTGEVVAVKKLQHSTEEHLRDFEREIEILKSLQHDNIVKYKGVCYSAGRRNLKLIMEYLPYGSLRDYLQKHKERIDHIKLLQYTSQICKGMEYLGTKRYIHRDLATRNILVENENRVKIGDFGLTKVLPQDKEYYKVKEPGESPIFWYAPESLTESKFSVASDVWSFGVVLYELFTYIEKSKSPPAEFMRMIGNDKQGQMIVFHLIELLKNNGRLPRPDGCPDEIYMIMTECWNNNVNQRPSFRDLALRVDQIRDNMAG
Procedure, shortened: as §1

TBK1 = TBK1 (Homo sapiens (Human), UniProt Q9UHD2); test: Eurofins IC50Profiler radiometric kinase assay, TBK1; conditions: 9 semilog concentrations
TBK1, sequence (Q9UHD2 whole entry, species assumed): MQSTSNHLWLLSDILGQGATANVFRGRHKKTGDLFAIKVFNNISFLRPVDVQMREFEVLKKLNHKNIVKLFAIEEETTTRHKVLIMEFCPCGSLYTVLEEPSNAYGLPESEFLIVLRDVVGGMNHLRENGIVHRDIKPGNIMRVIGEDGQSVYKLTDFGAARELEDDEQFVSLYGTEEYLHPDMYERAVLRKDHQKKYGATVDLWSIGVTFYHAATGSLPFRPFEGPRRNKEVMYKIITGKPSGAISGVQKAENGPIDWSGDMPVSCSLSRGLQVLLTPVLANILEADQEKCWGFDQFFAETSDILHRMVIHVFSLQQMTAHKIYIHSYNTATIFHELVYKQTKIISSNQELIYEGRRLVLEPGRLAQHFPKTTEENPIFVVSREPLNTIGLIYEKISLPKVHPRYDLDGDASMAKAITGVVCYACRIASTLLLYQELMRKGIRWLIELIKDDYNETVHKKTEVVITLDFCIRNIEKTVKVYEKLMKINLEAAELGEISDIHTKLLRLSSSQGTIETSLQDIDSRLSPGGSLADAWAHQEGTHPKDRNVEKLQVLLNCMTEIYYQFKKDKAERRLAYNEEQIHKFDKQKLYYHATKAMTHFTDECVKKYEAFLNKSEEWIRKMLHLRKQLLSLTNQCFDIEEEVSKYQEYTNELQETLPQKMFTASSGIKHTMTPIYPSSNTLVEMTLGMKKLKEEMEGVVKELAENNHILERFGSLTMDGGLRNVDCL
Text: A proportion of the compounds of the present invention are subjected to kinase profile screening (KinaseProfiler™)) and enzymatic inhibitory activity (IC50Profiler™)) assay by entrusting Eurofins company (http://www.eurofins.com). Besides the kinases in the JAK family, the kinases that have been screened for their activity also include most Group 3F and Group 4 kinases (ITK, BLK, TBK1, VEGFRs, ERBBs, etc.), and blood system related kinases (Zhang J. et al. 2009, Nat. Rev. Cancer., 9: 28-39). The concentration of the test compound for kinase profile screening is 1 μM, and a gradient of 9 semilog concentration gradients are used to determine IC50. Detection is carried out according to standard procedure of Eurofins Company. Briefly, according to the requirements of different kinase reactions, 0.2 μL test compound (50 μM, dissolved in dimethyl sulfoxide (DMSO)) is added to reaction buffer containing specific kinase (the buffer system containing 20 mM MOPS, 1 mM EDTA, 0.01% Brij-35, 5% Glycerol, 0.1% β-mercaptoethanol, 1 mg/mL BSA, or 50 mM TRIS, 0.1 mM EGTA, 0.1 mM Na3VO4, 0.1% β-mercaptoethanol, 1 mg/mL BSA, based on the type of kinase used). Subsequently, a kinase specific substrate at a final concentration of 50 μM (specific substrate used for specific kinase), 10 mM Mg Acetate and isotope-labeled γ-^33P ATP (radio-activity of about 500 cpm/pmol) are sequentially added to a total volume of 10 μL for the reaction system. After incubation at room temperature for 40 min, the reaction is terminated by adding 3% phosphoric acid solution. The mixture is then transferred to a filter-type low temperature spray dryer (P30 filtermat), and washed by 75 mM phosphoric acid solution for 3 times and by methanol once. After drying, radio-activity is detected. For specific procedure, see the standard procedure provided by Eurofins Company: http://www.eurofins.com/media/9724077/kinaseprofiler_assay_protocol_guide_eurofins_v64.pdf).

TYK2 = TYK2 (Homo sapiens (Human), UniProt P29597); test: Eurofins IC50Profiler radiometric kinase assay, TYK2; conditions: 9 semilog concentrations
TYK2, sequence (P29597 whole entry, species assumed): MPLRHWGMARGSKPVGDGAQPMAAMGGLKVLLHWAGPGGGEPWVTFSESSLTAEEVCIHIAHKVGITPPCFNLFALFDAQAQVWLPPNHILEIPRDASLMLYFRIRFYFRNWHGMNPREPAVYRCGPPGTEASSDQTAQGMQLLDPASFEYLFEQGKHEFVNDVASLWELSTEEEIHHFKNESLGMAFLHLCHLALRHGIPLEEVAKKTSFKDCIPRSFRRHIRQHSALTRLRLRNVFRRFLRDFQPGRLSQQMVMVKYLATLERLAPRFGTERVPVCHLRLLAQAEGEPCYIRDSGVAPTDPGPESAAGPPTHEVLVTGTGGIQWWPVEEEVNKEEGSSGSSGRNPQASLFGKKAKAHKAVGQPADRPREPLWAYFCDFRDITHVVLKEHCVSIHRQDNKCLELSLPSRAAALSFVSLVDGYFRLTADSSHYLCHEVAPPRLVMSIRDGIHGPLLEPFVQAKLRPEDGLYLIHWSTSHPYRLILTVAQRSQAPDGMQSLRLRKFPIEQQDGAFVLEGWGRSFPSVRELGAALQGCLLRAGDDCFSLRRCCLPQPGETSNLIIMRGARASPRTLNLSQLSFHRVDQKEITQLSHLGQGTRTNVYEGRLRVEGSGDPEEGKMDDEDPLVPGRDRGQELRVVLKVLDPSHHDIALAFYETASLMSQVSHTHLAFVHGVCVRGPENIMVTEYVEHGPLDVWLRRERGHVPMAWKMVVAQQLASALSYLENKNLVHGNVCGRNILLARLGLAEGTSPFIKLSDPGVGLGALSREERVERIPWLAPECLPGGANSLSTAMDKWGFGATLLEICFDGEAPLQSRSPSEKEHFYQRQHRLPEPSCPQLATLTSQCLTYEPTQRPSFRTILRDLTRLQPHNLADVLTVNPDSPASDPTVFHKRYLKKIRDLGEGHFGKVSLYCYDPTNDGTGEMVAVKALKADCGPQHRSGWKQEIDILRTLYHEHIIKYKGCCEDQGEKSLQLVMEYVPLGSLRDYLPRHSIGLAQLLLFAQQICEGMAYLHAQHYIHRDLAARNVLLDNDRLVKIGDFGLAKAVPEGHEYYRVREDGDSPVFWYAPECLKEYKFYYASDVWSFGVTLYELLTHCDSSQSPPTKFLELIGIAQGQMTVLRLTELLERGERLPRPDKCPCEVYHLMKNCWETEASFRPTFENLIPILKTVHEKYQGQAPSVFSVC
Text: A proportion of the compounds of the present invention are subjected to kinase profile screening (KinaseProfiler™)) and enzymatic inhibitory activity (IC50Profiler™)) assay by entrusting Eurofins company (http://www.eurofins.com). Besides the kinases in the JAK family, the kinases that have been screened for their activity also include most Group 3F and Group 4 kinases (ITK, BLK, TBK1, VEGFRs, ERBBs, etc.), and blood system related kinases (Zhang J. et al. 2009, Nat. Rev. Cancer., 9: 28-39). The concentration of the test compound for kinase profile screening is 1 μM, and a gradient of 9 semilog concentration gradients are used to determine IC50. Detection is carried out according to standard procedure of Eurofins Company. Briefly, according to the requirements of different kinase reactions, 0.2 μL test compound (50 μM, dissolved in dimethyl sulfoxide (DMSO)) is added to reaction buffer containing specific kinase (the buffer system containing 20 mM MOPS, 1 mM EDTA, 0.01% Brij-35, 5% Glycerol, 0.1% β-mercaptoethanol, 1 mg/mL BSA, or 50 mM TRIS, 0.1 mM EGTA, 0.1 mM Na3VO4, 0.1% β-mercaptoethanol, 1 mg/mL BSA, based on the type of kinase used). […] After drying, radio-activity is detected. […]

| Structure (SMILES) | JAK1 RV (ratio between the inhibitory rate of the test compound and that of Xeljanz) (JAK1) | inhibition at 0.3 µM (JAK1) [%] | inhibition at 0.03 µM (JAK2) [%] | pIC50 (TBK1) | JAK2 RV (ratio between the inhibitory rate of the test compound and that of Xeljanz) (JAK2) | pIC50 (TYK2) |
| --- | --- | --- | --- | --- | --- | --- |
| C=CC(=O)N(C)c1cc(Nc2ncc(Cl)c(NCCCNC(=O)c3ccc(F)cc3)n2)ccc1F [Example 23, N-(3-(5-chloro-2-(4-fluoro-3-(N-methylacrylamido)phenylamino)pyrimidinyl-4-amino)propyl)-4-fluorobenzamide] | 0.35 | 19 | 0 | 6.18 |  |  |
| C=CC(=O)N(C)c1cc(Nc2ncc(Cl)c(NCCCNC(=O)c3ccc(C#N)cc3)n2)ccc1F [Example 7, N-(3-(5-chloro-2-(4-fluoro-3-(N-methylacrylamido)phenylamino)pyrimidinyl-4-amino)propyl)-4-cyano-benzamide] | 0.58 | 56 | 5 | 6.79 | 0.08 | < 5.00 |
| C=CC(=O)N(C)c1cc(Nc2ncc(Cl)c(NCCCNC(=O)c3ccc(C(F)(F)F)cc3)n2)ccc1F [Example 22, N-(3-(5-chloro-2-(4-fluoro-3-(N-methylacrylamido)phenylamino)pyrimidinyl-4-amino)propyl)-4-trifluoromethylbenzamide] | 0.33 | 18 | 0 | < 5.00 |  | < 5.00 |
